The test system of the experiment is Melanoma cell lines. Kind of experiment: Cell line testing, dose matrix, Example 3, melanoma panel. Format: cell-based. To be noted: melanoma lines with activating NRAS mutation and BRAF mutants. Here is the method:
The combination of PI3K inhibitor COMPOUND A and MEK inhibitor COMPOUND B, as defined above, was tested across 38 cell lines from three tissue types (7 pancreas, 10 lung, and 21 melanoma). Each combination was tested in a partially-filled “dose matrix” constructed as follows: Each single drug was dispensed into growth media at a top concentration (11 μM for COMPOUND A or 2.7 μM for COMPOUND B), and serially diluted by 3× to yield a 7 point series covering a factor of 729 in concentration. The compounds were then combined at all pairs of the 2nd through the 6th concentrations, and this dose matrix was extended by also combining the top and bottom concentrations with each other. […] In order to identify cytotoxic treatments, we also determined “Day 0” cell populations at the start of drug treatment.
Cell responses at each treatment were measured using simple inhibitions I=1−T/V, where T is the treated well's raw response and V is the median untreated level between replicate wells on the plate. Cytotoxicity measurements were measured using a “Growth Inhibition” GI=1−(T−V0)/[T<V0? […] The “Synergy Score” SLoewe=ΣX,Y lnfX lnfY max(0,Idata) max(0,Idata−ILoewe) was calculated from the differences between the data Idata and the dose-additive surface ILoewe, across all combined concentrations X,Y, and weighted by the measured inhibition and the single agent dilution factors fX, fY. […]

Take `Cc1nc(NC(=O)N2CCC[C@H]2C(N)=O)sc1-c1ccnc(C(C)(C)C(F)(F)F)c1` [COMPOUND A, (S)-pyrrolidine-1,2-dicarboxylic acid 2-amide 1-({4-methyl-5-[2-(2,2,2-trifluoro-1,1-dimethyl-ethyl)-pyridin-4-yl]-thiazol-2-yl}-amide)]: the “response as a single agent” value is on record as “weak responses”.

The values are drawn from US9675595B2, “Synergistic combinations of PI3K- and MEK-inhibitors” (Novartis AG, priority 2011, dated 2017).
